This note sets out measurements from article PMC8222713, “Variation of Two S3b Residues in KV4.1–4.3 Channels Underlies Their Different Modulations by Spider Toxin κ-LhTx-1” (Frontiers in Pharmacology, 2021).

One test deals with KV1.5 channel (hKV1.5). The test can be described thus: Whole-cell patch clamp selectivity, KV1.5. The format is cell-based, human. To be noted: KV1.5, 10 µM, n = 5. On the procedure: The cDNA of hKV1.1, hKV1.3, rKV1.4, hKV1.5, rKV2.1, hKV3.1–3.4, mKV4.1, rKV4.2, and rKV4.3 were subcloned in the eukaryotic expression vector pCDNA3.1 or pCMV-blank. Channel mutants were made by a site-directed mutation method. Briefly, a pair of oppositely directed primers with 15 bp overlap at their 5′ ends and the designed mutation site were used to amplify the parental channel plasmid, then the PCR mix was treated with DpnI to remove the template. 10 μL digestion mix was directly used to transform 100 μL DH5α chemical competent cells. The correct mutation made by this procedure was finally confirmed by DNA sequencing. […] 4–6 h after transfection, cells were seeded onto poly-lysine (PLL) coated coverslips, and 24–36 h later, transfected cells were ready for patch-clamp analysis. […]
Whole-cell patch clamp recording was performed in an electrophysiology platform equipped with MultiClamp 700B amplifier and Axon Digidata 1550 AD/DA convertor (Axon Instruments, Irvine, CA, United States). […] The whole cell conductance (G) at each depolarizing voltage (V) was determined using the equation: G = I/(V−Vrev), where I and Vrev represents the current amplitude and the reversal potential, respectively. In the present study, Vrev for K^+ current is determined to be −85.61 mV using the Nernst equation. […] Gating currents of KV4.1–4.3 channels were measured as previously reported ([Tilley et al., 2019]). […]

A further test addresses T1, KV4.3 channel (rKV4.3) (Rattus norvegicus, UniProt Q62897).
T1 construct: expressed in transfected cells; host or cells: CHO-K1 (transient, co-transfected with pEGFP-N1)
T1 sequence (Q62897 1-655): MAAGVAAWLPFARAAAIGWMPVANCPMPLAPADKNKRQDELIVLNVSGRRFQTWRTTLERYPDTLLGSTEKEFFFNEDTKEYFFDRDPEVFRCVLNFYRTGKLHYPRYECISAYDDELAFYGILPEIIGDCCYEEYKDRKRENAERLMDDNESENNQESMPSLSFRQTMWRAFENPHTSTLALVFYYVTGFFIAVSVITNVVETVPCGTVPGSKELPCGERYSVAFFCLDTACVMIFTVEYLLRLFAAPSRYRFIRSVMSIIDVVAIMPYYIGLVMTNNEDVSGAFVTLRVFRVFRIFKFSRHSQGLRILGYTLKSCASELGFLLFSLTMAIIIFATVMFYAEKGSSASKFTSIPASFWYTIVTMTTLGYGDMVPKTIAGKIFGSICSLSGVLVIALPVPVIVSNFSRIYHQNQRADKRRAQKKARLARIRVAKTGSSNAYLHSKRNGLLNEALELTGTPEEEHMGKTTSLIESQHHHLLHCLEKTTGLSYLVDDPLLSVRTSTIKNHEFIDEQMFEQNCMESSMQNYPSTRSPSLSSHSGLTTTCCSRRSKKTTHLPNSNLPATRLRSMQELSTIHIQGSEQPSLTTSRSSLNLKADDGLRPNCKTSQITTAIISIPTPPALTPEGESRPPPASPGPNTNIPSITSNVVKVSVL
The test can be described thus: Whole-cell patch clamp, KV4.3 in CHO-K1 cells. The format is cell-based. The method, then: (§1) The cDNA of hKV1.1, hKV1.3, rKV1.4, hKV1.5, rKV2.1, hKV3.1–3.4, mKV4.1, rKV4.2, and rKV4.3 were subcloned in the eukaryotic expression vector pCDNA3.1 or pCMV-blank. Channel mutants were made by a site-directed mutation method. Briefly, a pair of oppositely directed primers with 15 bp overlap at their 5′ ends and the designed mutation site were used to amplify the parental channel plasmid, then the PCR mix was treated with DpnI to remove the template. 10 μL digestion mix was directly used to transform 100 μL DH5α chemical competent cells. The correct mutation made by this procedure was finally confirmed by DNA sequencing. CHO-K1 cells (ATCC® CCL-61™) were grown in DMEM-F12 mixed medium (1:1) supplemented with 10% FBS and maintained in standard conditions (saturated humidity, 37°C, 5% CO2). Channel plasmid was co-transfected with pEGFP-N1 (encodes the green fluoresence protein) into CHO-K1 cells using lipofectamine 2000 following the manufacturer’s instructions. 4–6 h after transfection, cells were seeded onto poly-lysine (PLL) coated coverslips, and 24–36 h later, transfected cells were ready for patch-clamp analysis. It should be note that KV4.2 and its mutants were also co-expressed with hKChIP1 to promote their functional expressions.
(§2) Whole-cell patch clamp recording was performed in an electrophysiology platform equipped with MultiClamp 700B amplifier and Axon Digidata 1550 AD/DA convertor (Axon Instruments, Irvine, CA, United States). Data were acquired using the pClamp software (Axon Instruments, Irvine, CA, United States). All experiments were performed at room temperature. The bath solution contains (in mM): 140 NaCl, 5 KCl, 1 MgCl2, 2 CaCl2, 10 glucose, and 10 HEPES (pH = 7.3). The pipette solution contains (in mM): 140 KCl, 2.5 MgCl2, 11 EGTA, and 10 HEPES (pH = 7.3). Series resistance was kept below 10 MΩ and compensated to 80%. The concentration–response curves were fitted by a Hill logistic equation to estimate the potency (IC50) of the toxin. The whole cell conductance (G) at each depolarizing voltage (V) was determined using the equation: G = I/(V−Vrev), where I and Vrev represents the current amplitude and the reversal potential, respectively. In the present study, Vrev for K^+ current is determined to be −85.61 mV using the Nernst equation. G-V curve was obtained by plotting the normalized G as a function of V and fitted by the Boltzmann equation: y = 1/{1 + exp [(Va−V)/K]}, in which Va, V, and K represents half-maximum activation voltage, test voltage and slope factor, respectively. The steady-state fast inactivation of KV4 channels was measured using a classical two-pulses protocol: cell was held at −120 mV, and a train of conditional voltages (−120–40 mV, in 10 mV increment, 1,000 ms) were applied to induce channel inactivation, followed by a +60 mV test pulse (300 ms) to assess the proportion of non-inactivated channels; the sweep interval was set to 10 s. Currents at the test pulse (I) were normalized to the maximum value (Imax) and plotted as a function of the conditional voltage (V), the curve was fitted by the Boltzmann equation: I/Imax = A + (1−A)/{1 + exp [(V−Vh)/K]}, where Vh is the half-maximum inactivation voltage, A represents the minimum channel availability, and K is the slope factor. Gating currents of KV4.1–4.3 channels were measured as previously reported ([Tilley et al., 2019]). Briefly, the ionic pore currents were abolished by replacing K^+ with NMDG^+ in the pipette solution, and 10 µM Cs^+ was present in the bath solution to occupy the selectivity filter of KV channels to prevent decay of the gating currents during recording.
(§3) Data were presented as MEAN ± SEM, n represents the number of separate experimental cells. Data were analyzed using the software Clampfit 10.5 (Axon Instruments, Irvine, CA, United States), Graphpad Prism 5.01 (GraphPad Software, La Jolla, CA, United States) and Excel 2010 (Microsoft Corporation, Redmond, WA, United States). […]

The test system of the next test is KV4.1/K283D mutant. The test can be described thus: Whole-cell patch clamp, KV4.1/K283D in CHO-K1 cells. It counts as cell-based, mouse. The method, then:
as §1, §2, §3

Where [1] appears, read: 10 μM κ-LhTx-1, KV4.3, G-V, mean ± SEM, n = 10.
The mark [2] stands for this setting: 10 μM κ-LhTx-1, KV4.3, two-pulse protocol, mean ± SEM, n = 7.
[3] abbreviates: 10 μM κ-LhTx-1, G-V, mean ± SEM, n = 5.
The mark [4] stands for this setting: 10 μM κ-LhTx-1, two-pulse protocol, mean ± SEM, n = 5.

Where a SMILES comes first, the peptide text is derived from it. Bridges are numbered along the chain shown (N, C = ends).

On to `CC[C@H](C)[C@@H]1NC(=O)[C@H](CCC(N)=O)NC(=O)[C@@H]2CSSC[C@@H]3NC(=O)[C@H](CC(C)C)NC(=O)[C@H](CC(N)=O)NC(=O)[C@H](CCSC)NC(=O)[C@H](Cc4c[nH]c5ccccc45)NC(=O)[C@H](CO)NC(=O)[C@H](C)NC(=O)[C@@H](NC(=O)[C@H](CCC(=O)O)NC(=O)[C@H](CCC(N)=O)NC(=O)[C@H](C)NC(=O)[C@H](CC(=O)O)NC(=O)[C@@H](N)CCC(=O)O)CSSC[C@H](NC(=O)[C@H](CSSC[C@@H](C(=O)N[C@@H](CCCCN)C(=O)N[C@@H](Cc4ccc(O)cc4)C(=O)N[C@@H](CCCCN)C(=O)N[C@@H](CC(C)C)C(N)=O)NC(=O)[C@H](Cc4c[nH]c5ccccc45)NC1=O)NC(=O)[C@H](CCCCN)NC(=O)[C@H](CCCCN)NC(=O)[C@H](CCC(=O)O)NC(=O)CNC3=O)C(=O)N[C@@H](CCC(=O)O)C(=O)NCC(=O)N[C@@H](Cc1ccc(O)cc1)C(=O)N[C@@H](C(C)C)C(=O)N2` [κ-LhTx-1] (H-EDAQECASWMNLCGEKKCCEGYVCQIWCKYKL-NH2; disulfide 6-19, 13-24, 18-28 (inferred); N-terminus and C-terminus assumed), for which the effect on currents result in the test with KV1.5 channel (hKV1.5) is listed as “did not remarkably affect the currents”. For the same compound, the results for the “Va (steady-state activation)” value on KV4.3 channel (rKV4.3) (setting [1]) and in the test with KV4.1/K283D mutant (setting [3]) were 46.86 ± 1.52 mV and 91.34 ± 3.47 mV, respectively. Also, the “k, slope factor (steady-state activation)” value is 20.45 ± 0.30 mV at KV4.3 channel (rKV4.3) (setting [1]) and 17.49 ± 1.57 mV in the test on KV4.1/K283D mutant (setting [3]). Moreover, the results for the “Vh (steady-state inactivation)” value on KV4.3 channel (rKV4.3) (setting [2]) and in the test on KV4.1/K283D mutant (setting [4]) were -30.87 ± 2.23 mV and -36.39 ± 3.03 mV, respectively. In addition, the “k, slope factor (steady-state inactivation)” value was 6.21 ± 0.43 mV at KV4.3 channel (rKV4.3) (setting [2]) and 19.23 ± 1.48 mV in the test on KV4.1/K283D mutant (setting [4]). Besides, at KV4.3 channel (rKV4.3) (KV4.3), the reversibility of inhibition entry is on record as “in a reversible manner”. Moreover, on KV4.3 channel (rKV4.3) (KV4.3, 10 µM, inhibition ratio at each depolarizing voltage, n = 5–8), the voltage-dependence of inhibition entry was “decreased quickly with the increment of the depolarizing voltage”. The I-V relationship shift entry at KV4.3 channel (rKV4.3) (KV4.3, 10 µM, n = 5–8) was “only a small shift”. At KV4.3 channel (rKV4.3) (KV4.3 at Va depolarizing voltage), the “current inhibition at Va” value is reported as “almost fully inhibited”. In addition, the “∆Va (steady-state activation)” value is reported as 39.88 ± 2.19 mV on KV4.3 channel (rKV4.3) (Va shift by 10 μM κ-LhTx-1 vs control, KV4.3, mean ± SEM) and 103.10 ± 4.22 mV in the test on KV4.1/K283D mutant (Va shift by 10 μM κ-LhTx-1 vs control, mean ± SEM). Also, the “∆Vh (steady-state inactivation)” value on KV4.3 channel (rKV4.3) (Vh shift by 10 μM κ-LhTx-1 vs control, KV4.3, mean ± SEM) came out at 14.83 ± 3.34 mV; with KV4.1/K283D mutant (Vh shift by 10 μM κ-LhTx-1 vs control, mean ± SEM), 24.74 ± 3.63 mV. Besides, the “∆Va and inhi%(min) vs wild-type KV4.1” value in the test with KV4.1/K283D mutant (10 μM) is “unchanged ∆Va and inhi%(min)”. The “potency vs wild-type KV4.1” value in the test on KV4.1/K283D mutant (+30 mV, n = 5) is on record as “only slightly reduced κ-LhTx-1 potency”.
